Test results: patent publication US20240368123A1, “AROMATIC RING-CONTAINING BIOLOGICAL ANTAGONIST, AND PREPARATION METHOD THEREFOR AND USE THEREOF” (SHANGHAI HANSOH BIOMEDICAL CO., LTD., priority 2021, published 2024)

These molecules were tested against T1, AT1 receptors (Homo sapiens, UniProt P30556) (assay: Effect on calcium current in cells stably expressing AT1 receptors (FLIPR, antagonist mode)). Details: HEK293-AT1 cells, Fluo-8 AM, FLIPR Tetra; read-out: IC50 values of compounds on calcium current in cells stably expressing AT1 receptors.
T1 construct: host or cells: HEK293
T1 sequence (P30556 1-359): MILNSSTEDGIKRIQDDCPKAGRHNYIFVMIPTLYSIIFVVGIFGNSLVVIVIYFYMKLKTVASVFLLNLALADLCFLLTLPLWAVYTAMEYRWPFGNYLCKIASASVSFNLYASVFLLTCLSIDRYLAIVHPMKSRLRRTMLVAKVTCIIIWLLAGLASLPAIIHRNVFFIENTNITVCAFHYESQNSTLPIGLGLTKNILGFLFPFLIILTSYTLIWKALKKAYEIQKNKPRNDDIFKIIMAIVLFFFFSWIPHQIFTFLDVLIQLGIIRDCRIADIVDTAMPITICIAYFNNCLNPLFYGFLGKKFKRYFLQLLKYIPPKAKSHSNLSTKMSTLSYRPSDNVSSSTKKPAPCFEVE
Format: cell-based
Description: Test Example 1. Determination of the Effect of the Compounds of the Present Invention on Calcium Current in Cells Stably Expressing AT1 Receptors
Antagonistic effect of test compounds on HEK293-AT1 cell activity
• DMEM, high glucose (Gibco: 12100); • Fetal bovine serum (Biosera: FB-1058/500); • P/S (Biosera: XC-A4122); • 5× Matrigel (Corning: 354230); • HBSS (Sigma: H1387); • HEPES (Invitrogen: 15630080); • Fluo-8 AM (AAT Bioquest: 21080); • Probenecid (Sigma: P8761); • Pluronic F-127 (Sigma: P2443-250G); • Angiotensin III TFA (MCE: HY-113035A); • Irbesartan (MCE: HY—B0202); • 1000× Fluo-8 AM (2 mM): Fluo-8 AM was dissolved in DMSO, the mixture was shaken for 1-2 min, sub-packaged and stored at −20° C.; • Complete culture medium: DMEM+10% FBS+1×P/S; • Cell seeding medium: DMEM+10% FBS+1×PS; • Experimental buffer 1: 1×HBSS+20 mM HEPES+1 mM Probenecid+0.025% Pluronic F-127; • Experimental buffer 2: 1×HBSS+20 mM HEPES+0.075% Pluronic F-127; • 1× Matrigel: 5× Matrigel was diluted with DMEM; • Cell line: HDB HEK293-AT1.
• 1) HEK293-AT1 cell line was cultured in complete culture medium at 37° C., 5% CO2 to 70%-90% confluence. • 2) the 384-well cell plate was coated with 1× Matrigel with 5 μL/well at room temperature for 10 to 30 min. • 3) the cells were digested and resuspended in cell seeding medium, inoculation was performed at 8,000 cells/well/20 μL in a 384-well cell culture plate, and the cells were cultured at 37° C., 5% CO2 for 24 h. • 4) the cell culture plate was taken out of the CO2 incubator and equilibrated at room temperature for 10 min. • 5) 1000× Fluo-8 AM was taken and diluted to 1× Fluo-8 AM with experimental buffer 1 that has been equilibrated to room temperature, with a concentration of 2 μM. • 6) the culture medium was removed from the cell culture plate, 20 μL of 1× Fluo-8 AM was added to each well, the mixture was centrifuged at 300 rpm for 60 seconds at room temperature, and incubated at room temperature in the dark for 1 h. • 7) positive control compound and test compound working solution (3×) were formulated: • (1) instrument Bravo was used to dilute the compound to 11 concentration points on the 384-well Echo compound plate (LABCYTE: LP-0200); • (2) instrument ECHO was used to transfer 90 nL of compound per well (compound storage concentration, such as the highest concentration point 10 mM) to the 384-well compound plate (PE: 6008590); • (3) Multidrop Combi was used to add 30 μL of experimental buffer 2 to the 384-well compound plate (PE: 6008590), the positive control compound and test compound were diluted to 30 μM (3×), and placed at room temperature until use. • 8) FLIPR Tetra was used to add 10 μL of diluted 3× compound into the experimental well of the corresponding 384-well cell plate, the compound and cells were incubated for 10 min at room temperature, then 10 μL of diluted 4× agonist was added, and the data was read and collected at the same time.
FLIPR Tetra was used to read and collect the fluorescence signal value (RFU). The maximum RFU value was used to calculate the percent activation data based on the readings of the Low control (DMSO control) and High control (100 nM positive compound) experimental groups {% activation rate=(RFUsample−RFUlow control)/(RFUhigh control−RFUlow control)×100}. The concentration of the test compound was 11 concentrations after diluting the reaction system 3 times, ranging from 10 uM to 0.17 nM.

Which IC50 does the source give for CCCCC1=NC2(CC3CC3C2)C(=O)N1Cc1ccc(-c2ccccc2S(=O)(=O)Nc2noc(C)c2Cl)c(COCC)c1 (stereo not drawn) [Example 65, 4′-((2′-butyl-5′-oxaspiro[bicyclo[3.1.0]hexane-3,4′-imidazole]-1′(5′H)-yl)methyl)-N-(4-chloro-5-methylisoxazol-3-yl)-2′-(ethoxymethyl)-[1,1′-biphenyl]-2-sulfonamide] here?
Its IC50 is 4.4 nM.

How did the IC50 turn out when CCCCC1=NC2(CCCC2)C(=O)N1Cc1ccc(-c2ccccc2S(=O)(=O)Nc2noc(C)c2Br)c(COCC)c1 [Example 46, 2-[4-[(2-butyl-4-oxo-1,3-diazaspiro[4.4]non-1-en-3-yl)methyl]-2-(ethoxymethyl)phenyl]-N-(4-bromo-5-methyl-isoxazol-3-yl)benzsulfamide] was run?
The IC50 was 3.9 nM.

Which IC50 does the source give for CCCCC1=NC2(CCCCC2)C(=O)N1Cc1ccc(-c2ccccc2S(=O)(=O)Nc2noc(C)c2Cl)c(COCC)c1 [Example 68, 4′-((2-2-4-4-oxo-1,3-diazaspiro[4.5]dec-1-en-3-yl)methyl)-N-(4-chloro-5-methylisoxazol-3-yl)-2′-(ethoxymethyl)-[1,1′-biphenyl]-2-sulfonamide] here?
The IC50 was 8.8 nM.

How did the IC50 turn out when [2H]C([2H])(OCC)c1cc(CN2C(=O)C3(CCCC3)N=C2CCCC)ccc1-c1ccccc1S(=O)(=O)Nc1noc(C)c1Cl [Example 49, 4′-((2-butyl-4-oxo-1,3-diazospiro[4.4]non-1-en-3-yl)methyl)-N-(4-chloro-5-methylisoxazol-3-yl)-2′-(ethoxydeuteriummethyl)-[1,1′-biphenyl]-2-sulfonamide] was run?
Its IC50 is 7.2 nM.

With CCCCC1=NC2(CCCC2)C(=O)N1Cc1ccc(-c2ccccc2S(=O)(=O)Nc2noc(C)c2Cl)c(COCC(F)(F)F)c1 [Example 86] as the molecule, how does the IC50 read?
Its IC50 is 2.2 nM.

CCCCC1=NC2(CC3CC3C2)C(=O)N1Cc1ccc(-c2ccccc2S(=O)(=O)Nc2noc(C)c2C)c(COCC)c1 (stereo not drawn) [Example 87, 4′-((2′-butyl-5′-oxaspiro[bicyclo[3.1.0]hexane-3,4′-imidazole]-1′(5′H)-yl)methyl)-N-(4,5-dimethylisoxazol-3-yl)-2′-(ethoxymethyl)-[1,1′-biphenyl]-2-sulfonamide] was tested. Which IC50 did it give?
Its IC50 is 9.6 nM.
